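96-well plates; 48 h exposure; 5 concentrations. Endpoints by linear interpolation between flanking doses. Not reached: highest tested concentration assigned. At the GI50, growth is halved.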 Calls of active or inactive are those of the source. No stated cut-off is given here; in the data, active = GI50 up to about 1.1 µM and inactive = higher.
Assays:
Experiment in all cases: DTP human tumour cell line panel, 48 h
786-0 = system: 786-0
A498 = system: A498
HCT-116 = system: HCT-116
HOP-62 = system: HOP-62
HT-29 = system: HT-29
K562 = system: K562
MDA-MB-231 = system: MDA-MB-231
MDA-MB-435 = system: MDA-MB-435
Malme-3M = system: Malme-3M
NCI-H23 = system: NCI-H23
NCI/ADR-RES = system: NCI/ADR-RES
OVCAR-3 = system: OVCAR-3
OVCAR-5 = system: OVCAR-5
RPMI-8226 = system: RPMI-8226
SF-539 = system: SF-539
SK-MEL-28 = system: SK-MEL-28
SN12C = system: SN12C
SNB-19 = system: SNB-19
UACC-62 = system: UACC-62
BT-549 = system: BT-549

Row | SMILES | GI50 (786-0) | GI50 (A498) | GI50 (HCT-116) | GI50 (HOP-62) | GI50 (HT-29) | GI50 (K562) | GI50 (MDA-MB-231) | GI50 (MDA-MB-435) | GI50 (Malme-3M) | GI50 (NCI-H23) | GI50 (NCI/ADR-RES) | GI50 (OVCAR-3) | GI50 (OVCAR-5) | GI50 (RPMI-8226) | GI50 (SF-539) | GI50 (SK-MEL-28) | GI50 (SN12C) | GI50 (SNB-19) | GI50 (UACC-62) | GI50 (BT-549)
1 | CCOC(=O)C(=O)/C(=C\NC(=S)Nc1ccccc1Cl)C(=O)OCC | > 100 µM (inactive) | > 100 µM (inactive) | > 100 µM (inactive) | > 100 µM (inactive) | > 100 µM (inactive) | > 100 µM (inactive) | > 100 µM (inactive) | > 100 µM (inactive) | > 100 µM (inactive) | > 100 µM (inactive) | > 100 µM (inactive) | > 100 µM (inactive) | > 100 µM (inactive) | > 100 µM (inactive) | > 100 µM (inactive) | > 100 µM (inactive) | > 100 µM (inactive) | > 100 µM (inactive) | > 100 µM (inactive) | –
2 | CCOC(=O)C12C3CCC1C2C(=O)C3 (stereo not given) | > 100 µM (inactive) | – | > 100 µM (inactive) | > 100 µM (inactive) | > 100 µM (inactive) | > 100 µM (inactive) | > 100 µM (inactive) | > 100 µM (inactive) | > 100 µM (inactive) | > 100 µM (inactive) | > 100 µM (inactive) | > 100 µM (inactive) | > 100 µM (inactive) | > 100 µM (inactive) | > 100 µM (inactive) | > 100 µM (inactive) | > 100 µM (inactive) | > 100 µM (inactive) | > 100 µM (inactive) | > 100 µM (inactive)
3 | N#Cc1nc(Cc2ccccc2)oc1N | > 100 µM (inactive) | – | > 100 µM (inactive) | > 100 µM (inactive) | > 100 µM (inactive) | 42.1 µM (inactive) | > 100 µM (inactive) | > 100 µM (inactive) | > 100 µM (inactive) | > 100 µM (inactive) | – | > 100 µM (inactive) | > 100 µM (inactive) | 16.9 µM (inactive) | > 100 µM (inactive) | > 100 µM (inactive) | > 100 µM (inactive) | 38.7 µM (inactive) | – | > 100 µM (inactive)
4 | N#CC12C(=O)NC(=O)C1(C#N)C1C=CC2CC1 (stereo not given) | > 100 µM (inactive) | – | > 100 µM (inactive) | – | > 100 µM (inactive) | – | – | > 100 µM (inactive) | > 100 µM (inactive) | > 100 µM (inactive) | > 100 µM (inactive) | > 100 µM (inactive) | > 100 µM (inactive) | > 100 µM (inactive) | > 100 µM (inactive) | > 100 µM (inactive) | > 100 µM (inactive) | > 100 µM (inactive) | > 100 µM (inactive) | > 100 µM (inactive)
5 | COC[C@@H](C[C@H]1O[C@@](O)([C@H](O)[C@@H]2C[C@H](OC)[C@@H](O)CC/C=C(C)/C=C/[C@@H](O[C@@H]3O[C@@H](C)[C@H](OC)[C@@H](O)[C@@H]3O)[C@H](C)/C=C(C)/C=C(C)/C=C(\C)C(=O)O2)[C@H](C)[C@@H](O)[C@H]1C)O[C@H]1C[C@](C)(O)[C@@H](O[C@H]2C[C@@H](OC)[C@H](O)[C@@H](C)O2)C(C)O1 (stereo not given in full) | > 100 µM (inactive) | – | > 100 µM (inactive) | – | > 100 µM (inactive) | 0.149 µM (active) | > 100 µM (inactive) | > 89.1 µM (inactive) | – | 0.0532 µM (active) | > 100 µM (inactive) | 63.1 µM (inactive) | > 100 µM (inactive) | 86.5 µM (inactive) | > 100 µM (inactive) | > 67.8 µM (inactive) | > 100 µM (inactive) | – | > 100 µM (inactive) | > 92.3 µM (inactive)
6 | O=C1C(O)=C(CCCCCCCCC2CCCCC2)C(=O)c2ccccc21 [MENOCTONE] | 6.01 µM (inactive) | – | 3.33 µM (inactive) | 11.6 µM (inactive) | 12 µM (inactive) | 2.51 µM (inactive) | 4.56 µM (inactive) | 4.99 µM (inactive) | 1.3 µM (inactive) | 3.33 µM (inactive) | 6.34 µM (inactive) | 10.7 µM (inactive) | 17 µM (inactive) | 6.15 µM (inactive) | 7.53 µM (inactive) | 11.4 µM (inactive) | 7.89 µM (inactive) | 9.86 µM (inactive) | 6.05 µM (inactive) | 11.7 µM (inactive)
7 | O=C1c2cc([N+](=O)[O-])ccc2NC2C(O)c3ccccc3N12 (stereo not given) | 25.2 µM (inactive) | 18.3 µM (inactive) | 30.8 µM (inactive) | 30.1 µM (inactive) | 80.4 µM (inactive) | 22.2 µM (inactive) | 31.6 µM (inactive) | 52.8 µM (inactive) | – | 24.3 µM (inactive) | 23.5 µM (inactive) | 20.4 µM (inactive) | > 100 µM (inactive) | 18.5 µM (inactive) | 29.3 µM (inactive) | – | 48.9 µM (inactive) | 29 µM (inactive) | 3.45 µM (inactive) | 22.8 µM (inactive)
8 | Cc1ccc(C)c(NC(=O)C(=O)C2C(=O)C3=C(CC2(C)C)Nc2ccccc2S3)c1 (stereo not given) | 61.8 µM (inactive) | – | > 100 µM (inactive) | 31.6 µM (inactive) | > 100 µM (inactive) | – | 97.1 µM (inactive) | > 100 µM (inactive) | – | > 100 µM (inactive) | 65.2 µM (inactive) | 55.6 µM (inactive) | > 100 µM (inactive) | – | 56.9 µM (inactive) | > 100 µM (inactive) | > 100 µM (inactive) | > 100 µM (inactive) | > 100 µM (inactive) | > 100 µM (inactive)

Source: ChEMBL document CHEMBL1201862, “PubChem BioAssay data set” (2004)
